Like-named read-outs stand apart in the source and are kept apart here.
How the values were obtained:
[1] = tested on: PAXF1657 control empty vector cell line; assay: 7-day proliferation assay, PAXF1657 control empty vector cell line (Example 9); format: cell-based; conditions: 168 h; Cell Line: PAXF1657 empty vector (EV) cell line; 7-day; read-out: C: 7-day proliferation assay: IC50 GeoMean
In short: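 Cells plated at 500 per well and attached overnight. Next, 10-point inhibitor series added (30 μM-0.0002 μM, 0.3% DMSO) and a day-0 viability plate read. Then, after 3 days, medium with fresh compound. Finally, viability after 4 more days via CellTiter-Glo.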

GRK2 = molecular target: T1, GRK2 (Homo sapiens, UniProt P25098); assay: ADPGlo GRK2 Inhibition Assay (Example 8); format: biochemical; conditions: read-out: A: Enzymatic GRK2: IC50 (nM) (Example 8)
T1 construct: purchased SignalChem A14-10G
T1 sequence (P25098 1-689): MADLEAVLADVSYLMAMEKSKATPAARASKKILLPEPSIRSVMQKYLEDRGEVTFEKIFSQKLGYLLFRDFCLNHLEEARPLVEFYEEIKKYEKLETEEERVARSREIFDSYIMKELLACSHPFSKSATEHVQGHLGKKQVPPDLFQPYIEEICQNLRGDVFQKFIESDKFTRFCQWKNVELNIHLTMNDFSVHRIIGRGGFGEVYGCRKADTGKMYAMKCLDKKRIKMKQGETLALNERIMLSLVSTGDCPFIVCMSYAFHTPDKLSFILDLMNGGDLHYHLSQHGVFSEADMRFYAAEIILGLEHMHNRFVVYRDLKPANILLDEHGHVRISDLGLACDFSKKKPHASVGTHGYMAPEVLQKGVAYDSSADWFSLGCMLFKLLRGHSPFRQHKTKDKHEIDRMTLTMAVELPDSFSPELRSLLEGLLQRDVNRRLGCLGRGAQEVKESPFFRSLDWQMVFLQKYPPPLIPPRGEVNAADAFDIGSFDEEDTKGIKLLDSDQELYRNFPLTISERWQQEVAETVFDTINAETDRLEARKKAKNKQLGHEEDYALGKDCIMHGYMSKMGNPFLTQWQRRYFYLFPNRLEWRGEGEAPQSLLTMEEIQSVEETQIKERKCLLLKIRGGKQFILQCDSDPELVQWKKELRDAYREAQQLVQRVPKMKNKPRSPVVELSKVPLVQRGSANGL
In short: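 GRK2 (15 nM 2× enzyme solution) was preincubated 15 min with compound, then reacted 180 min at room temperature with 2× mix of 20 μM ATP plus GRKtide in HEPES pH 7.5, MgCl2, Tween-20, DTT. ADP was detected by ADP-Glo luminescence. Percent inhibition was normalised to enzyme and no-enzyme controls, with dose-response curves from threefold dilutions starting at 100 μM.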

[2] = Enzyme Assay A, ADPGlo (Example 8)

| SMILES | IC50 (GRK2; ADPGlo GRK2 enzyme assay) | IC50 (GRK2; [2]) | IC50 [1] |
| --- | --- | --- | --- |
| Cc1cc(CO)cc(C)c1CNC(=O)c1cccc(NCc2nnc(-c3ccncn3)n2C)c1 | 10.8 nM | – | 738 nM |
| Cn1c(CNc2cccc(C(=O)N[C@H]3CCOc4c(Cl)cccc43)c2)nnc1-c1ccncc1 | – | 32.1 nM | > 30000 nM |
| COc1cnccc1CNC(=O)c1cccc(NCc2nnc(-c3ccncc3)[nH]2)c1 | – | 26 nM | > 10000 nM |
| Cn1c(CNc2cccc(C(=O)C[C@H]3CCCc4cccnc43)c2)nnc1-c1ccncn1 | – | 20 nM | 224 nM |
| O=C(NCc1ncco1)c1cccc(NCc2nnc(-c3ccncc3)[nH]2)c1 | – | 25 nM | > 10000 nM |
| COc1ccc(C(C)NC(=O)c2cccc(NCc3nnc(-c4ccncn4)n3C)c2)cn1 (centres unmarked) | 22.6 nM | – | 1710 nM |
| O=C(NC(CO)c1ccccn1)c1cccc(NCc2nnc(-c3ccncc3)[nH]2)c1 (centres unmarked) | – | 20 nM | > 10000 nM |
| O=C(N[C@H]1COCc2ccccc21)c1cccc(NCc2nnc(-c3ccncn3)n2CCO)c1 | – | 38.1 nM | > 2110 nM |
| Cn1c(CNc2cccc(C(=O)NCc3cnc4ccccn34)c2)nnc1-c1ccncc1F | 39 nM | – | > 30000 nM |
| CCCCCOc1ccc2c(c1)[C@@H](NC(=O)c1cccc(NCc3nnc(-c4ccncn4)n3C)c1)CO2 | 8.3 nM | – | 236 nM |
| Cn1c(CNc2cccc(C(=O)N[C@H](C#N)c3cccnc3)c2)nnc1-c1ccncn1 | 20.3 nM | – | 3430 nM |
| CCn1ncc(Cl)c1CNC(=O)c1cccc(NCc2nnc(-c3ccncn3)n2C)c1 | – | 16 nM | > 10000 nM |
| Cc1noc(C)c1CNC(=O)c1cccc(NCc2nnc(-c3ccncc3)[nH]2)c1 | – | 24 nM | > 10000 nM |
| Cn1c(CNc2cccc(C(=O)N[C@H]3COCc4ccccc43)c2)nnc1-c1ccncc1F | – | 32.5 nM | 61.5 nM |
| CC(NC(=O)c1cccc(NCc2nnc(-c3ccncn3)n2C)c1)c1ncnn1C (centres unmarked) | – | 230 nM | > 10000 nM |
| Cc1ccc(C#N)cc1CNC(=O)c1cccc(NCc2nnc(-c3ccncn3)n2CCO)c1 | 3.22 nM | – | > 30000 nM |
| Cn1c(CNc2cccc(C(=O)NC3COc4cc(F)ccc43)c2)nnc1-c1ccncn1 (centres unmarked) | 35.4 nM | – | 547 nM |
| Cc1ncccc1CNC(=O)c1cccc(NCc2nnc(-c3ccncc3)[nH]2)c1 | – | 19 nM | > 10000 nM |
| Cn1c(CNc2cccc(C(=O)N[C@H]3CCOc4ccc(C(F)(F)F)cc43)c2)nnc1-c1ccncn1 | – | 834 nM | 28500 nM |

| SMILES | IC50 (GRK2; ADPGlo GRK2 enzyme assay) | IC50 (GRK2; [2]) | IC50 [1] |
| --- | --- | --- | --- |
| Cn1c(CNc2cccc(C(=O)NCc3cscn3)c2)nnc1-c1ccncn1 | – | 13 nM | > 30000 nM |
| COc1ncc(Br)cc1CNC(=O)c1ccnc(NCc2nnc(-c3ccncn3)n2C)c1 | 28.1 nM | – | > 30000 nM |
| CC(C)n1nccc1CNC(=O)c1cccc(NCc2nnc(-c3ccncc3)[nH]2)c1 | – | 20 nM | > 10000 nM |
| Cn1c(CNc2cccc(C(=O)NCc3cncc4c3CCC4)c2)nnc1-c1ccncn1 | 15.3 nM | – | > 11700 nM |
| Cn1c(CNc2cccc(C(=O)N[C@@H]3COCc4c(Cl)cccc43)c2)nnc1-c1ccncc1F | – | 60.4 nM | > 30000 nM |
| Cn1c(CNc2cccc(C(=O)NCc3nc(C4CC4)no3)c2)nnc1-c1ccncn1 | – | 27 nM | 5750 nM |
| Cn1c(CNc2cccc(C(=O)NCc3c(F)cccc3-n3cccn3)c2)nnc1-c1ccncn1 | – | 24 nM | > 10000 nM |
| Cn1ccnc1C(NC(=O)c1cccc(NCc2nnc(-c3ccncc3)[nH]2)c1)C1CC1 (centres unmarked) [drawing 485] | – | 10 nM | 5510 nM |
| Cc1ncncc1[C@@H](C)NC(=O)c1cccc(NCc2nnc(-c3ccncn3)n2C)c1 | 15.5 nM | – | > 30000 nM |
| Cn1c(CNc2cccc(C(=O)N[C@@H](CCO)c3ccccc3)c2)nnc1-c1ccncc1F | 28.9 nM | – | > 1440 nM |
| Cc1cccnc1C(C)(C)NC(=O)c1cccc(NCc2nnc(-c3ccncn3)n2C)c1 | – | 630 nM | > 10000 nM |
| Cn1c(CNc2cccc(C(=O)N[C@@H](CO)c3cc(F)ccc3F)c2)nnc1-c1ccncn1 | – | 10 nM | > 30000 nM |
| Cn1c(CNc2cccc(C(=O)N[C@H](CCO)c3ccccc3)c2)nnc1-c1ccncc1F | 18 nM | – | > 30000 nM |
| COCC(NC(=O)c1cccc(NCc2nnc(-c3ccncn3)n2C)c1)c1ccc(F)c(F)c1 (centres unmarked) | – | 46 nM | 280 nM |
| Cn1c(CNc2cccc(C(=O)NC3CCS(=O)(=O)c4ccc(F)cc43)c2)nnc1-c1ccncn1 (centres unmarked) | 65.4 nM | – | 8680 nM |
| Cn1c(CNc2cccc(C(=O)N[C@@H](C#N)c3cc(F)ccc3F)c2)nnc1-c1ccncn1 | 15.7 nM | – | 244 nM |
| CCn1ncc(Cl)c1CNC(=O)c1cccc(NCc2nnc(-c3ccncc3)[nH]2)c1 | – | 12 nM | 560 nM |
| COc1cccc([C@H](C)NC(=O)c2cccc(NCc3nnc(-c4ccncc4)n3CCO)c2)c1 | 2.99 nM | – | > 30000 nM |

Continued, in another order:

| IC50 (GRK2; ADPGlo GRK2 enzyme assay) | IC50 (GRK2; [2]) | SMILES | IC50 [1] |
| --- | --- | --- | --- |
| 44.6 nM | – | Cn1c(CNc2cccc(C(=O)NCc3ccc(C(F)F)nc3)c2)nnc1-c1ccncn1 | > 4160 nM |
| 15 nM | – | Cc1cccnc1[C@H](C)NC(=O)c1cccc(NCc2nnc(-c3ccncn3)n2C)c1 | > 30000 nM |
| 13.8 nM | – | Cn1c(CNc2cccc(C(=O)NCc3ccncc3Br)c2)nnc1-c1ccncn1 | 633 nM |
| – | 22 nM | COc1cccc(CNC(=O)c2cccc(NCc3nnc(-c4ccncn4)n3C)c2)c1 | > 30000 nM |
| – | 45 nM | C[C@H](NC(=O)c1cccc(NCc2nnc(-c3ccncn3)n2C)c1)c1ccncc1 | 771 nM |
| 53.5 nM | – | Cn1c(CNc2cccc(C(=O)NCc3ccncc3-c3cc[nH]n3)c2)nnc1-c1ccncn1 | > 23300 nM |
| 30.1 nM | – | COc1nc(C)ccc1CNC(=O)c1cccc(NCc2nnc(-c3ccncn3)n2C)c1 | > 30000 nM |
| 58.8 nM | – | Cc1nccn1-c1ncccc1CNC(=O)c1cccc(NCc2nnc(-c3ccncn3)n2C)c1 | > 25800 nM |
| 46.1 nM | – | CN(C)c1ncccc1CNC(=O)c1cccc(NCc2nnc(-c3ccncn3)n2C)c1 | 1160 nM |
| 27.6 nM | – | Cn1c(CNc2cccc(C(=O)NCc3cccnc3Cl)c2)nnc1-c1ccncn1 | 506 nM |
| 12 nM | – | C#Cc1ccc(CNC(=O)c2cccc(NCc3nnc(-c4ccncn4)n3C)c2)c(F)c1 | 413 nM |
| – | 36 nM | Cn1cc(CNC(=O)c2cccc(NCc3nnc(-c4ccncn4)n3C)c2)cn1 | 9770 nM |
| 28.5 nM | – | COc1ccc(CNC(=O)c2cccc(NCc3nnc(-c4ccncn4)n3C)c2)c(C)n1 | > 30000 nM |
| 21.5 nM | – | COc1ncc(Br)cc1CNC(=O)c1cccc(NCc2nnc(-c3ccncn3)n2C)c1 | 610 nM |
| – | 10 nM | COc1cccc(CNC(=O)c2cccc(NCc3nnc(-c4ccncn4)n3C)c2)c1F | > 10000 nM |
| 68.4 nM | – | Cn1c(CNc2cccc(C(=O)NC3COc4ccccc4C3)c2)nnc1-c1ccncn1 (centres unmarked) | > 12600 nM |
| – | 41 nM | Cc1cc(CNC(=O)c2cccc(NCc3nnc(-c4ccncn4)n3C)c2)nn1C | > 30000 nM |
| – | 9.54 nM | Cn1c(CNc2cccc(C(=O)N[C@H](CCO)c3ccccc3)c2)nnc1-c1ccncn1 | 4190 nM |
| 24.7 nM | – | COc1cc(F)ccc1CNC(=O)c1cccc(NCc2nnc(-c3ccncn3)n2C)c1 | 28000 nM |
| 65.8 nM | – | CC(C)NS(=O)(=O)c1ccccc1CNC(=O)c1cccc(NCc2nnc(-c3ccncn3)n2C)c1 | > 15900 nM |
| 37.3 nM | – | COc1nccc(C)c1CNC(=O)c1cccc(NCc2nnc(-c3ccncn3)n2C)c1 | 930 nM |
| – | 15 nM | Cc1cncc(CNC(=O)c2cccc(NCc3nnc(-c4ccncn4)n3C)c2)c1 | > 30000 nM |
| 71.5 nM | – | Cn1c(CNc2cccc(C(=O)NCc3ccccc3CN3CCOCC3)c2)nnc1-c1ccncn1 | 6710 nM |
| – | 14 nM | Cc1cccnc1CNC(=O)c1cccc(NCc2nnc(-c3ccncn3)n2C)c1 [drawing 264] | 1610 nM |
| 65 nM | – | Cn1c(CNc2cccc(C(=O)NC3CC(O)c4ccccc43)c2)nnc1-c1ccncn1 (centres unmarked) | > 30000 nM |
| – | 39 nM | Cn1c(CNc2cccc(C(=O)NCc3cnccc3C(F)(F)F)c2)nnc1-c1ccncn1 | > 10000 nM |
| 50.2 nM | – | Cc1ccnc(CNC(=O)c2cccc(NCc3nnc(-c4ccncn4)n3C)c2)c1F | > 30000 nM |

From US20230009608A1, “GRK2 INHIBITORS AND USES THEREOF” (Cygnal Therapeutics, Inc., priority 2020, published 2023)
